Reference: publication PMC1940322, “The Effect of PPARα, PPARδ, PPARγ, and PPARpan Agonists on Body Weight, Body Mass, and Serum Lipid Profiles in Diet-Induced Obese AKR/J Mice” (PPAR Research, 2007)
pEC50: −log10 of the molar value. Where “and” joins values, the source holds several entries; their conditions need not be identical. Equal values may be shown once.

Legend:
murine PPARα = target: T1, murine PPARα (Mus musculus, UniProt P23204); assay: PPAR-GAL4 transient transfection transactivation assay (SPAP reporter) in CV-1 cells, PPARα; assay type: cell-based; conditions: for pEC50: CV-1 cells, GAL4 chimera, read-out: mPPARα, murine receptor activation EC50; for mPPARα %Max: maximal activation vs reference comparator
T1 construct: expressed in transfected cells; host or cells: CV-1 cells
T1 sequence (P23204 239-466 limits assumed): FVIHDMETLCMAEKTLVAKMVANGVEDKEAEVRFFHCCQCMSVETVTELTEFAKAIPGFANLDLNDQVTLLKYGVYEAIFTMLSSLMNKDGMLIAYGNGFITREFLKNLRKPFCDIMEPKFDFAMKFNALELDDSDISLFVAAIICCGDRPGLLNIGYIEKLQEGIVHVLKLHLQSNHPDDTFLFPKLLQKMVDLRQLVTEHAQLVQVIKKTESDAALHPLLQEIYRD
Method: The functional potency of selected ligands was evaluated using a transient transfection assay in CV-1 cells. The ligand binding domains for murine PPARα, PPARδ, and PPARγ were fused to the yeast transcription factor GAL4 DNA binding domain as a chimera. CV-1 cells were propagated and transiently transfected with expression vectors for the respective PPAR chimera as previously described. Test compounds were compared to reference comparators that give maximum responses in this assay. Compounds which produced an activation of at 70% or greater, compared to a positive control, were considered full agonists.

murine PPARδ = target: T2, murine PPARδ (Mus musculus, UniProt P35396); assay: PPAR-GAL4 transient transfection transactivation assay (SPAP reporter) in CV-1 cells, PPARδ; assay type: cell-based
T2 construct: expressed in transfected cells; host or cells: CV-1 cells
T2 sequence (P35396 210-438 limits assumed): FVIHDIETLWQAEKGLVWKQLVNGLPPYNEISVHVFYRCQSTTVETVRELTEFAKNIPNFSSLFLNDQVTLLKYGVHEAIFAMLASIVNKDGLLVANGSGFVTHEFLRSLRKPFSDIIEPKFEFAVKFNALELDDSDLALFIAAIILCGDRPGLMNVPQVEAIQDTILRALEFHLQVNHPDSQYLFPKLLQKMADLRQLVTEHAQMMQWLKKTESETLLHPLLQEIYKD
Method: The functional potency of selected ligands was evaluated using a transient transfection assay in CV-1 cells. The ligand binding domains for murine PPARα, PPARδ, and PPARγ were fused to the yeast transcription factor GAL4 DNA binding domain as a chimera. CV-1 cells were propagated and transiently transfected with expression vectors for the respective PPAR chimera as previously described.

[1] = tested on: fatty acid oxidation in mouse liver; assay: Ex vivo fatty acid oxidation in liver homogenates (14C-CO2 capture); conditions: liver extracts from animals treated for 28 days
Method: Fatty acid oxidation (FAO) was determined by ^14C-labeled CO2 capture from tissue homogenates using a method modified from Dohm et al.. Following treatment with either vehicle or a PPAR agonist, livers from fed mice were surgically removed and a section excised from the same lobe. The tissue was immediately weighed, minced with scissors and placed in tubes (Falcon #2063) on ice. Cold SET buffer (250 mM Sucrose, 1 mM EDTA, 10 mM Tris, pH 7.4) was added at a ratio of 10 mL SET:1 gram of tissue and the tissue homogenized on ice for 15 sec using a hand-held homogenizer (Polytron PT1200; Kinematica AG). The homogenates remained on ice until assayed.
The labeled reaction buffer was prepared by first drying ^14C-oleic acid (0.5 μCi/reaction; PerkinElmer #NEC-317) under nitrogen. The dried fraction is re-suspended in unlabeled oleic acid such that the final concentration of oleic acid in the reaction buffer was 0.2 mM. BSA was added slowly while mixing to a final concentration of 0.5% and the mixture was incubated at 37°C for 15 minutes. The labeled cocktail was then added to the reaction buffer to give a produce concentration of 100 mM sucrose, 10 mM Tris pH 7.4, 4 mM ATP, 0.05 mM Coenzyme A, 0.1 mM malic acid, 1 mM magnesium chloride, 80 mM potassium chloride, 5 mM potassium phosphate, 0.2 mM EDTA, and 2 mM L-carnitine, as described previously.
Oxidation reactions were performed in tubes (Falcon #352059) fitted with a stopper top (KONTES Glass Co., #882310-0000), center well (KONTES #882320-0000), and filter (Socorex #322.02) soaked with 175 μL of 1N NaOH. 100 μL of homogenate was dispensed into each tube and the reactions initiated by adding 400 μL of reaction buffer. The tubes were quickly capped and incubated with gentle shaking for 60 minutes in a 37°C water bath. After incubation, the filters were removed, from the tubes, placed in 7 mL of scintillant, and counted for 2 minutes (PerkinElmer Tri-Carb 3100TR). The oxidative activity of each compound was calculated as nmole CO2 captured/gram tissue/hour and reported as fold change relative to vehicle control.
On the final day of each experiment, a terminal blood sample (800–1000 μL) was obtained via cardiac puncture under isoflurane anesthesia. Whole blood was placed in a Terumo Capiject blood collection tube (Terumo Medical Corp., Elkton, Md, USA), allowed to sit at room temperature for 20 minutes then centrifuged to obtain serum. Serum levels of glucose, triglycerides, glycerol, nonesterified fatty acids, total cholesterol, the high-density lipoprotein cholesterol, and β-hydroxybutyrate were determined in all mice using an Olympus AU640 clinical chemistry immuno-analyzer (Olympus America Inc., Melville, NY, USA). In addition, liver weights were obtained following the terminal blood sample on the final day of the study and samples were used to determine liver fatty acid oxidation activity.

Row | SMILES | pEC50 (murine PPARα) | mPPARα %Max (murine PPARα) | pEC50 (murine PPARδ; CV-1 cells, GAL4 chimera, read-out: mPPARδ, murine receptor activation EC50) | mPPARδ %Max (murine PPARδ; maximal activation vs reference comparator) | effect on liver FAO (in words) [1] | effect on liver FAO (in words) ([1]; listed as PPARγ agonist) | increase in FAO ([1]; relative to vehicle control) | selectivity for PPARα over PPARγ and PPARδ (murine PPARα; murine receptors)
1 | COC(=O)c1ccccc1N[C@@H](Cc1ccc(OCCc2nc(-c3ccccc3)oc2C)cc1)C(=O)O [GW7845] | 4.97 | 30% | 5.00 | 12% | no effect on FAO in mouse liver | not different from vehicle | – | –
2 | Cc1cc(SCc2sc(-c3ccc(C(F)(F)F)c(F)c3)nc2C)ccc1OCC(=O)O [GW0742] | 5.05 | 55% | – | – | significant increase in liver FAO | – | 1.9 fold | –
3 | CCCCCCCN(CCc1ccc(SC(C)(C)C(=O)O)cc1)C(=O)Nc1ccc(F)cc1F [GW9578] | 8.10 and 8.09 | 95% | – | – | not different from vehicle | – | – | > 250 fold
